Measured values as given in article PMC5762315, “Inhibition of polo-like kinase 4 (PLK4): a new therapeutic option for rhabdoid tumors and pediatric medulloblastoma” (Oncotarget, 2017).
Several values for one entry are separate records, joined by “and”; a condition that tells them apart may be missing. Identical values can stand only once.

What was measured:
Test in all cases: biochemical
Type in all cases: biochemical
[1] = target: various kinases (Homo sapiens, UniProt P51957); conditions: NEK4
[2] = target: various kinases (Homo sapiens, UniProt Q9Y4K4); conditions: MAP4K5 (KHS1)
[3] = target: various kinases (Homo sapiens, UniProt P16234, T674I); conditions: PDGFRA T674I
[4] = target: various kinases (Homo sapiens, UniProt Q13153); conditions: PAK1
[5] = target: various kinases (Homo sapiens, UniProt Q9H0K1); conditions: kinase SNF1LK2; ZLYTE
[6] = target: various kinases (Homo sapiens, UniProt Q02750); conditions: MAP2K1 (MEK1)
[7] = target: various kinases (Homo sapiens, UniProt P78362); conditions: kinase SRPK2; ZLYTE
[8] = target: various kinases (Homo sapiens, UniProt P19784); conditions: CSNK2A2 (CK2 alpha 2)
[9] = target: T1, various kinases (Homo sapiens, UniProt Q9BXA7); conditions: kinase STK22D (TSSK1); ZLYTE
T1 sequence (Q9BXA7 1-367): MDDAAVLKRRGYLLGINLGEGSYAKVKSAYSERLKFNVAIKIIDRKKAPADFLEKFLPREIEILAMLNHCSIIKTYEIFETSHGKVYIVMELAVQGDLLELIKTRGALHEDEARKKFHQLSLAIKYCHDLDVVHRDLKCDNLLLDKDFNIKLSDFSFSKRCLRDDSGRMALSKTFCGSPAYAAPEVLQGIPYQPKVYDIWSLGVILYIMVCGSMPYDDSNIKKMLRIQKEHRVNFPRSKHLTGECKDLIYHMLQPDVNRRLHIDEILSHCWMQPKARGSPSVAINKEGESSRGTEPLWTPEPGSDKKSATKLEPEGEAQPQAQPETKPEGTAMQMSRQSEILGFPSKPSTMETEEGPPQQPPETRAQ

[10] = target: various kinases (Homo sapiens, UniProt P27448); conditions: MARK3
[11] = target: various kinases (Homo sapiens, UniProt Q86Z02); conditions: HIPK1 (Myak)
[12] = target: various kinases (Homo sapiens, UniProt P07949, A883F); conditions: kinase RET A883F; ZLYTE
[13] = target: various kinases (Homo sapiens, UniProt Q13882); conditions: kinase PTK6 (Brk); ZLYTE
[14] = target: T2, various kinases (Homo sapiens, UniProt Q13470); conditions: kinase TNK1; ZLYTE
T2 sequence (Q13470 1-666): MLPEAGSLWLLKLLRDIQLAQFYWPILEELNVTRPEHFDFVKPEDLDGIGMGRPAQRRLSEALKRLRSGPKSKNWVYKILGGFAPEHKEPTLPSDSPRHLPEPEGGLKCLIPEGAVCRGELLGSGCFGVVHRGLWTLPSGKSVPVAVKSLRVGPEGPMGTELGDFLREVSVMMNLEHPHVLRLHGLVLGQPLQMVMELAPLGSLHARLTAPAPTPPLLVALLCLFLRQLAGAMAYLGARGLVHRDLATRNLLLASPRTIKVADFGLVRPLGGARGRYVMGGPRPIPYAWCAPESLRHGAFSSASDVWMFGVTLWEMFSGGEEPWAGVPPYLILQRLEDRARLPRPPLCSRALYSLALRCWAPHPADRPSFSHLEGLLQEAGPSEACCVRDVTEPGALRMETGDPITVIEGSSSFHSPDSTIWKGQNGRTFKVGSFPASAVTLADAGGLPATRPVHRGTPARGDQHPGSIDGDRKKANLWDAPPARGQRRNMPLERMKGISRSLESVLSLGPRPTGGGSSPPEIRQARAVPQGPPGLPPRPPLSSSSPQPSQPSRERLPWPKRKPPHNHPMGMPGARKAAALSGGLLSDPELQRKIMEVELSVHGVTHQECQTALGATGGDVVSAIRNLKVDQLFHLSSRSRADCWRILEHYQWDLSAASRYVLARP

[15] = target: various kinases (Homo sapiens, UniProt P04049, Y340D/Y341D); conditions: kinase RAF1 (cRAF) Y340D Y341D; ZLYTE
[16] = target: various kinases (Homo sapiens, UniProt P43405); conditions: kinase SYK; ZLYTE
[17] = target: various kinases (Homo sapiens, UniProt P06241); conditions: FYN
[18] = target: various kinases (Homo sapiens, UniProt P78368); conditions: CSNK1G2 (CK1 gamma 2)
[19] = target: various kinases (Homo sapiens, UniProt Q9Y463); conditions: DYRK1B
[20] = target: various kinases (Homo sapiens, UniProt P36896); conditions: ACVR1B (ALK4)
[21] = target: various kinases (Homo sapiens, UniProt O15264); conditions: MAPK13 (p38 delta)
[22] = target: various kinases (Homo sapiens, UniProt P15056); conditions: BRAF
For % Inhibition Average in this document: test concentration or dose not given here.
For % Inhibition Duplicate #1 in this document: test concentration or dose not given here.
For % Inhibition Duplicate #2 in this document: test concentration or dose not given here.

various kinases (Homo sapiens, UniProt P04049, Y340D/Y341D), sequence (P04049 whole entry Y340D/Y341D): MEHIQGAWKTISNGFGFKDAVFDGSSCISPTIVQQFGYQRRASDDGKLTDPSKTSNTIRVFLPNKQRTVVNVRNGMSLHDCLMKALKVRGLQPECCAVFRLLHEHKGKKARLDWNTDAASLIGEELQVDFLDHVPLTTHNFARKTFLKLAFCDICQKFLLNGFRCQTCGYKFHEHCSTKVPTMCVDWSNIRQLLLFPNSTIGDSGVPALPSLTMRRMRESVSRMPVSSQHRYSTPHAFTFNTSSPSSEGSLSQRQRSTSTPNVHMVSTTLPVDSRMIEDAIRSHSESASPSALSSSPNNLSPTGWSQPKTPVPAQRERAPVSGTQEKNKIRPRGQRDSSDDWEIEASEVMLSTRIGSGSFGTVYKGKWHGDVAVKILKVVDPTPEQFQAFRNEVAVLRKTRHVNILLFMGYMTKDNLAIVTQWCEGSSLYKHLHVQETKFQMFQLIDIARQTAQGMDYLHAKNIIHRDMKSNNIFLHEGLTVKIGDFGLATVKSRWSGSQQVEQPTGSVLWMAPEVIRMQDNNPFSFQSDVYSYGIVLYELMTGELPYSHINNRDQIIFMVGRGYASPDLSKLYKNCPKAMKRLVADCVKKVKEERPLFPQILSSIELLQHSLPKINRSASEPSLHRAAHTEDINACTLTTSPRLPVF
various kinases (Homo sapiens, UniProt Q13882), sequence (Q13882 whole entry): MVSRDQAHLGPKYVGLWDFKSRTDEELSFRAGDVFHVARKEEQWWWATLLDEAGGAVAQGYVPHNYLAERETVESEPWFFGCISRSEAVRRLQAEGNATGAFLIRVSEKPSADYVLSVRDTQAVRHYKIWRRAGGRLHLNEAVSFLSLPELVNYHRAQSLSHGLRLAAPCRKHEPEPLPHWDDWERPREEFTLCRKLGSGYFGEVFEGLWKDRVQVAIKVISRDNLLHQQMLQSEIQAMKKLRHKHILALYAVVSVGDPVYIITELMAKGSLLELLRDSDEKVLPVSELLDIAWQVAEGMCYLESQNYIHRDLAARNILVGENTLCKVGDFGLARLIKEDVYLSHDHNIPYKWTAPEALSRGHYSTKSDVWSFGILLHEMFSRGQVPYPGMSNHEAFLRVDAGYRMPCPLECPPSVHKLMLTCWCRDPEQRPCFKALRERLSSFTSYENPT
various kinases (Homo sapiens, UniProt Q9H0K1), sequence (Q9H0K1 whole entry): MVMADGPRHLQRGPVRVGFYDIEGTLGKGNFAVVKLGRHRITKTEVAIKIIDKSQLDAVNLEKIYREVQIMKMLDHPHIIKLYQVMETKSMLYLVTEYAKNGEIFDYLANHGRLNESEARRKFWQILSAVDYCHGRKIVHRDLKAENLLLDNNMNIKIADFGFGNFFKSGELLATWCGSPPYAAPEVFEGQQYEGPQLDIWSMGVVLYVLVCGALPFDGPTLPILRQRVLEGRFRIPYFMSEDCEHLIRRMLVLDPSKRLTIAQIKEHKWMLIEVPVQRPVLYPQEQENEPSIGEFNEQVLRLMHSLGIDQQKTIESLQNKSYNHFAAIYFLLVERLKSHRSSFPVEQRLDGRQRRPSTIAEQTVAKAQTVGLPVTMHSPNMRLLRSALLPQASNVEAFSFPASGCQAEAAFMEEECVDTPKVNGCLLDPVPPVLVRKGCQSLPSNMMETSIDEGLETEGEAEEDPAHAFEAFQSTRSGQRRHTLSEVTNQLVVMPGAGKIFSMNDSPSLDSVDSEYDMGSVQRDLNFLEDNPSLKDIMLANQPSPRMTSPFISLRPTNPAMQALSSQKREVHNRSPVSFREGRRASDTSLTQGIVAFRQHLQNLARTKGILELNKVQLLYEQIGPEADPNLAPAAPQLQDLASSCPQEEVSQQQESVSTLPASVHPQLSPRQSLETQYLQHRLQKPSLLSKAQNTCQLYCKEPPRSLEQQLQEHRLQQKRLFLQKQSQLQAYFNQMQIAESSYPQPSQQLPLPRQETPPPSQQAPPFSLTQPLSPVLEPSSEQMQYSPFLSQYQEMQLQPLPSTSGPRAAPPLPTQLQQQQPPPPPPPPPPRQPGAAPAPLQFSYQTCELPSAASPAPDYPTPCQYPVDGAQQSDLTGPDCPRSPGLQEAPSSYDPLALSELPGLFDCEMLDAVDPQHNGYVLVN
various kinases (Homo sapiens, UniProt P07949, A883F), sequence (P07949 29-1114 A883F): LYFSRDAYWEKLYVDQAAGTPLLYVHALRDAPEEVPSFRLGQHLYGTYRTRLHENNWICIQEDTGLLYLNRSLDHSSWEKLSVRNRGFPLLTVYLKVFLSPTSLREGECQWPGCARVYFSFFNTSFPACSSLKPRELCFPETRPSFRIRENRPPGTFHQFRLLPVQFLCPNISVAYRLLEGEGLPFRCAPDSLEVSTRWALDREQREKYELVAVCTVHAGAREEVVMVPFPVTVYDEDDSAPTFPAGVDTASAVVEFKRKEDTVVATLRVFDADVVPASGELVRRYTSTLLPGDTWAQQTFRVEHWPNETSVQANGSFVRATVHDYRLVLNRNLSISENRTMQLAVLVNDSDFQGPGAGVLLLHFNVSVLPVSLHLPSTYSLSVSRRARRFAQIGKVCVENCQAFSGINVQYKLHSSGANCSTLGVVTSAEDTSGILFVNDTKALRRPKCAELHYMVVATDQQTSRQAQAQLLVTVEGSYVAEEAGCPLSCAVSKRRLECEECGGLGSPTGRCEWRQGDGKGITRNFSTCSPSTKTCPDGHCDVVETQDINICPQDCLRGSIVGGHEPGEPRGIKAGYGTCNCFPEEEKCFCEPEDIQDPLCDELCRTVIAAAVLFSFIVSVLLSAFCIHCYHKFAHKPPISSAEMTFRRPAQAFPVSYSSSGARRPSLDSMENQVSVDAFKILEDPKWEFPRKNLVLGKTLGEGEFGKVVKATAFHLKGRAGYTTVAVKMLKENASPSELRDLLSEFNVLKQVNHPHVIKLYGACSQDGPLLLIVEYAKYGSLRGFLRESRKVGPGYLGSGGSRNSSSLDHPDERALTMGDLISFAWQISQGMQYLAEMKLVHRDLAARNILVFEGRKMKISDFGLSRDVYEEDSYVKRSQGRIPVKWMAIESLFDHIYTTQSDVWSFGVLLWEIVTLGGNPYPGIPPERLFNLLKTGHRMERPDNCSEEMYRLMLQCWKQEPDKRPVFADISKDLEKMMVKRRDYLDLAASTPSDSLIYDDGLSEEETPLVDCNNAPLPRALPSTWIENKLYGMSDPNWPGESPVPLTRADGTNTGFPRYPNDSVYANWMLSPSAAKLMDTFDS
various kinases (Homo sapiens, UniProt P78362), sequence (P78362 whole entry): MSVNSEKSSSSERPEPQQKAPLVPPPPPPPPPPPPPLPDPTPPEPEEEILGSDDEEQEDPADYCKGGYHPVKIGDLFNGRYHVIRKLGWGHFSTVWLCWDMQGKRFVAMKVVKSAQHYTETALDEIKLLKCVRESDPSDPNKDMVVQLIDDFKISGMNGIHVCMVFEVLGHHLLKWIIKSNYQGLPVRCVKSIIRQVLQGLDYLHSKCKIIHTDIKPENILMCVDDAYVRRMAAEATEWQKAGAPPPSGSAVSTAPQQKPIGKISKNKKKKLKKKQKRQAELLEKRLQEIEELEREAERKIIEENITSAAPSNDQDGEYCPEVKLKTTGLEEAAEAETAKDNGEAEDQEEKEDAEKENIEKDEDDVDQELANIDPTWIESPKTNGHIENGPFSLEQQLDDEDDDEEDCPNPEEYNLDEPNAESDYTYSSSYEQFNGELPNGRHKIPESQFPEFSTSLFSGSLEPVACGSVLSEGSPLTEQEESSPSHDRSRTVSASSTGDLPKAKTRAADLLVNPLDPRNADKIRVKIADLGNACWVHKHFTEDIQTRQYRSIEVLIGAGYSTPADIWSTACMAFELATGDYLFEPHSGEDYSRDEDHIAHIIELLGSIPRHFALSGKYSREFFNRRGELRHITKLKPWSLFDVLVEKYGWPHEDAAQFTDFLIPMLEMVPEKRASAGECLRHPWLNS
various kinases (Homo sapiens, UniProt P36896), sequence (P36896 24-505): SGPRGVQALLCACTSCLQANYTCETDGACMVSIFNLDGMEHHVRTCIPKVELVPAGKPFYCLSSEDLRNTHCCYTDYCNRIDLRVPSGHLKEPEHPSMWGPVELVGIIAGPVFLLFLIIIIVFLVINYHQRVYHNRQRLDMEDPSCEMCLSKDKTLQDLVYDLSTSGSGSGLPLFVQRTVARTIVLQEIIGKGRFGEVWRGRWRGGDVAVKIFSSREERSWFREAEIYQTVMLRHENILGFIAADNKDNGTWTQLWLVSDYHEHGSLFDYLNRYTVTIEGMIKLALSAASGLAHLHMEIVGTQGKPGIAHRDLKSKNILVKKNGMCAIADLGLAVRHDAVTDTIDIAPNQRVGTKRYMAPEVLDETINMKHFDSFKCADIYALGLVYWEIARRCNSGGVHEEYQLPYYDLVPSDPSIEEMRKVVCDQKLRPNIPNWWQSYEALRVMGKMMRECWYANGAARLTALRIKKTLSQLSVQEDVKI
various kinases (Homo sapiens, UniProt Q13153), sequence (Q13153 whole entry): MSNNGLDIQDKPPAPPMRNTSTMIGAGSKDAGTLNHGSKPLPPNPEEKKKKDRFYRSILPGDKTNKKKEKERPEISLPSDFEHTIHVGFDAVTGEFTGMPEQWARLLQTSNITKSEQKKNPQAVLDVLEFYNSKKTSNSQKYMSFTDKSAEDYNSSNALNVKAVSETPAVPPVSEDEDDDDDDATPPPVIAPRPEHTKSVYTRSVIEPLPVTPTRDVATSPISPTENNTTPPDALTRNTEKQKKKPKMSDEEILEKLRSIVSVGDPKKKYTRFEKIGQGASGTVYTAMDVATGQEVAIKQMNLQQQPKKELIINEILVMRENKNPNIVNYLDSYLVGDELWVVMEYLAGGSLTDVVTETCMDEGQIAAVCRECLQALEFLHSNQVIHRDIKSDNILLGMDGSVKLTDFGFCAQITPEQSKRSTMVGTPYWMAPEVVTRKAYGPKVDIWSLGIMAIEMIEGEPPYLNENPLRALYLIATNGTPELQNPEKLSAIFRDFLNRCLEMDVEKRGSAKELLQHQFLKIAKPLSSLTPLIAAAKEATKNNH

COc1ccc2c(c1)[C@]1(C[C@H]1c1ccc3c(/C=C/c4ccc(CN5C[C@@H](C)O[C@@H](C)C5)cc4)n[nH]c3c1)C(=O)N2 [CFI-400945]
% Inhibition [1]: 3% and 1% | % Inhibition [2]: 12% and 23% | % Inhibition [3]: 1% and 2% | % Inhibition [4]: 11% and 6% | % Inhibition Average [5]: 5% | % Inhibition Duplicate #1 [5]: 4% | % Inhibition Duplicate #2 [5]: 5% | % Inhibition [6]: 9% | % Inhibition Average [7]: 7% | % Inhibition Duplicate #1 [7]: 10% | % Inhibition Duplicate #2 [7]: 4% | % Inhibition [8]: -1% and 0% | % Inhibition Average [9]: 6% | % Inhibition Duplicate #1 [9]: 7% | % Inhibition Duplicate #2 [9]: 5% | % Inhibition [10]: 9% and 19% | % Inhibition [11]: 0% | % Inhibition Average [12]: 7% | % Inhibition Duplicate #1 [12]: 9% | % Inhibition Duplicate #2 [12]: 4% | % Inhibition Average [13]: 4% | % Inhibition Duplicate #1 [13]: 5% | % Inhibition Duplicate #2 [13]: 3% | % Inhibition Average [14]: 30% | % Inhibition Duplicate #1 [14]: 26% | % Inhibition Duplicate #2 [14]: 34% | % Inhibition Average [15]: 12% | % Inhibition Duplicate #1 [15]: 10% | % Inhibition Duplicate #2 [15]: 14% | % Inhibition Average [16]: 11% | % Inhibition Duplicate #1 [16]: 11% | % Inhibition Duplicate #2 [16]: 11% | % Inhibition [17]: 6% and 5% | % Inhibition [18]: 1% and 3% | % Inhibition [19]: -1% and -5% | % Inhibition [20]: -1% and -8% | % Inhibition [21]: 1% and 4% | % Inhibition [22]: -1% and 2%
